Test results taken from patent US10071103B2, “Treatments for resistant acne” (VYOME BIOSCIENCES PVT. LTD., priority 2014, dated 2018).
Entries after “also recorded” stand apart in the source; their conditions may differ. Counter-ions that a name gives are not always drawn.

Key:
[1] = system: IL-6; test: P. acnes-induced IL-6 release in THP-1 cells (ELISA); assay type: cell-based
Experimental: (§1) Method: Preparation of Stimulant for Inflammation: P. acnes culture suspension was prepared in PBS and the cell number in the suspension was adjusted to approximately 5×10^8 CFU/ml by measuring the cell density using a Densimat. The bacterial suspension was then heat killed at 80° C. for 30 min and stored at −80° C. until further use.
(§2) Cells were seeded in a 96-well format (2×10^5 THP-1 cells per well) in media containing 10% FBS. The cells were stimulated to induce inflammatory cytokines using 3 McFarland equivalent heat-killed P. acnes. Cells in control wells were treated with PBS. One hour after induction with P. acnes, test agents were added to the induced cells at appropriate concentrations to be tested (compound 91 at 25 μg/ml). The plates were incubated at 37° C. for 24 hours. After 24 h, the plates were centrifuged to pellet the cells and the supernatants were collected. The cell culture supernatants thus obtained were analyzed for levels of cytokines (IL-1α, IL-1β, IL-6 and IL-8) by ELISA using R&D Systems kits for individual cytokines following the manufacturer's instructions.
as §1, with “Preparation” for “Method: Preparation”, “stimulant” for “Stimulant”, “inflammation:” for “Inflammation:”
(§3) Cells were seeded in a 96-well format (2×10^5 THP-1 cells per well) in media containing 10% FBS. The cells were stimulated to induce inflammatory cytokines using 3 McFarland equivalent heat-killed P. acnes. Cells in control wells were treated with PBS. One hour after induction with P. acnes, test agents were added to the induced cells at appropriate concentrations (Besifloxacin at 10 and 30 μg/ml; Adapalene at 0.04 and 0.4 μg/ml). The plates were incubated at 37° C. for 24 hours. After 24 h, the plates were centrifuged to pellet the cells and the supernatants were collected. The cell culture supernatants thus obtained were analyzed for cytokine levels (IL-6 and IL-8) by ELISA using R&D Systems kits for individual cytokines following the manufacturer's instructions.

[2] = system: IL-8; test: P. acnes-induced IL-8 release in THP-1 cells (ELISA); assay type: cell-based
Experimental: as §1, §2
as §1, with “Preparation” for “Method: Preparation”, “stimulant” for “Stimulant”, “inflammation:” for “Inflammation:”
as §3

[3] = system: THP-1 cells; test: Viability of THP-1 cells under treatment; assay type: cell-based; conditions: Example 61; each tested condition
[4] = pH dependent solubility of besifloxacin.HCl; assay type: physicochemical; conditions: pH of about 4.5 or below solubilizes the drug
Text: Preparation of drug-loaded (suspended form) gel via a conventional method usually leads to exposure of the drug to a wide range of pH conditions, which may lead to, in some instances, solubilization of the drug, and then reprecipitation. This solubilization-reprecipitation phenomenon in most cases leads to change in original particle size, impurity profile or crystal pattern, or others. […] The solubilized besifloxacin then, upon increase in pH (during formulation preparation), reprecipitates, which may result in one or more unwanted changes.

[5] = system: IL-1α; test: P. acnes-induced IL-1α release in THP-1 cells (ELISA); assay type: cell-based; conditions: 25 μg/ml, 100% = P. acnes induced cells
Experimental: as §1, §2

[6] = system: IL-1β; test: P. acnes-induced IL-1β release in THP-1 cells (ELISA); assay type: cell-based; conditions: 25 μg/ml, 100% = P. acnes induced cells
Experimental: as §1, §2

[7] = 25 μg/ml, THP-1 cells, 100% = P. acnes induced cells
[8] = Cells + P. acnes + 0.4 μg/ml (positive control), THP-1 cells, 24 h, Table 70
[9] = Cells + P. acnes + Dexamethasone 0.4 μg/ml, THP-1 cells, Table 71

| Structure (SMILES) | Effect on P. acnes-induced IL-6 levels (in words) ([1]; Example 61, besifloxacin 10, 30 μg/ml, adapalene 0.04, 0.4 μg/ml, hydrochloride) | Reduction in IL-6 levels compared to untreated control ([1]; besifloxacin.HCl alone at 10 μg/ml) | Effect on P. acnes-induced IL-8 levels (in words) ([2]; Example 61, besifloxacin 10, 30 μg/ml, adapalene 0.04, 0.4 μg/ml) | Cell viability compared to untreated cells [3] | Solubility (in words) [4] | Percentage reduction in P. acnes induced IL-6 release [1, 7] | Expression of Cytokines IL-6 (pg/ml) Mean [1, 8] | Expression of Cytokines IL-6 (pg/ml) Mean [1, 9] | Reduction in IL-6 levels ([1]; Example 61, positive control) | Percentage reduction in P. acnes induced IL-8 release [2, 7] | Expression of Cytokines IL-8 (pg/ml) Mean [2, 8] | Expression of Cytokines IL-8 (pg/ml) Mean [2, 9] | Percentage reduction in P. acnes induced IL-1α release [5] | Percentage reduction in P. acnes induced IL-1β release [6] |
| --- | --- | --- | --- | --- | --- | --- | --- | --- | --- | --- | --- | --- | --- | --- |
| N[C@@H]1CCCCN(c2c(F)cc3c(=O)c(C(=O)O)cn(C4CC4)c3c2Cl)C1 [Besifloxacin.HCl, besifloxacin hydrochloride] | significant dose-dependent decrease; also recorded: impart individual anti-inflammatory effects | approximately 40% | does not show similar effect | over 80% | pH dependent solubility | – | – | – | – | – | – | – | – | – |
| C[C@@H]1C[C@H]2[C@@H]3CCC4=CC(=O)C=C[C@]4(C)[C@@]3(F)[C@@H](O)C[C@]2(C)[C@@]1(O)C(=O)CO [Dexamethasone] | – | – | – | – | – | 99.54% | 2.15 pg/mL | 2.15 pg/mL | ~100% | 58.78% | 1080.8 pg/mL | 1080.76 pg/mL | 53.83% | 64.73% |
